Test results published in patent publication US20060241175A1, “Vehicle for topical delivery of anti-inflammatory compounds” (priority 2002, published 2006).
In brackets after ≈: the same amount, converted by molar mass. Where two headings read alike, the source gives them in different places.

Experiments:
[1] = physchem; details: organic solvent or mixture, thermodynamic from solid
[2] = in olive or corn oil; cited from earlier work

SMILES: COc1ccc2c(c1)c(CC(=O)O)c(C)n2C(=O)c1ccc(Cl)cc1 [Indomethacin]
- solubility ([1]; maximum solubility): 160 mg/mL (≈ 447 mM)
- solubility [2]: below 0.2%

SMILES: CN1C(C(=O)Nc2ccccn2)=C(O)c2ccccc2S1(=O)=O [Piroxicam]
- solubility ([1]; solubility): 2.9 to 3.2 mg/mL (≈ 8.75 to 9.66 mM)
- solubility [2]: below 0.05%
